Tests used:
Type in all cases: nucleic-acid assay
Nucleic Acid [1] = assay: Induction of photochemical DNA cleavage in Escherichia coli pBR322 assessed as form I level at 15 uM in pH 6.0 phosphate buffer measured after 4 mins of UV irradiation
Nucleic Acid [2] = assay: Induction of photochemical DNA cleavage in Escherichia coli pBR322 assessed as form I level at 15 uM in pH 6.0 phosphate buffer measured after 6 mins of UV irradiation
Nucleic Acid [3] = assay: Induction of DNA cleavage in Escherichia coli pBR322 at 15 uM in pH 6.0 phosphate buffer measured after of UV irradiation
Nucleic Acid [4] = assay: Induction of photochemical DNA cleavage in Escherichia coli pBR322 assessed as form 3 level at 15 uM in pH 7.0 phosphate buffer measured after 2 mins of UV irradiation
Nucleic Acid [5] = assay: Induction of photochemical DNA cleavage in Escherichia coli pBR322 assessed as form 2 level at 15 uM in pH 6.0 phosphate buffer measured after 1 min of UV irradiation
Nucleic Acid [6] = assay: Induction of photochemical DNA cleavage in Escherichia coli pBR322 assessed as form 3 level at 15 uM in pH 6.0 phosphate buffer measured after 8 mins of UV irradiation
Nucleic Acid [7] = assay: Induction of photochemical DNA cleavage in Escherichia coli pBR322 assessed as form 3 level at 15 uM in pH 8.0 phosphate buffer measured after 10 mins of UV irradiation
Nucleic Acid [8] = assay: Induction of DNA cleavage in Escherichia coli pBR322 at 10 uM in pH 6.0 phosphate buffer measured after of UV irradiation

Question: What does the source list for NCCCC[C@H](N)C(=O)NCCCC[C@H](N)C(=O)Nc1ccc(C#Cc2c(F)c(F)nc(F)c2F)cc1.O=C(O)C(F)(F)F?
Answer: Activity (Nucleic Acid [1]): 0%; Activity (Nucleic Acid [2]): 0%; Activity (Nucleic Acid [3]): 159%; Activity (Nucleic Acid [4]): 12.7%; Activity (Nucleic Acid [5]): 52.7%; Activity (Nucleic Acid [6]): 65%; Activity (Nucleic Acid [7]): 21.3%; Activity (Nucleic Acid [8]): 75%

From ChEMBL document CHEMBL2157896, “Engineering pH-gated transitions for selective and efficient double-strand DNA photocleavage in hypoxic tumors” (J Med Chem, 2011)
